Here are results for one compound from patent US20210345603A1, “COMPOSITION INTENDED FOR INCREASING THE VELOCITY OF SPERMS COMPRISING SEROTONIN AS ACTIVE COMPOUND” (YILDIZ TEKNÍK ÜNIÌVERSÍTESÌ, priority 2018, published 2021).

Structures are written as SMILES.

One assay has as its system sperm cells. Description: Sperm motility test in Makler counting chamber after incubation in sperm wash medium. The arrangement: unit not given here. It is filed as cell-based, human. How it is done: The first step is to collect the sperm cells and the semen of the infertile men within the range of 28-45 is used. Specimens are obtained after a sexual abstinence for 3-4 days. All semen specimens are collected in sterile containers and left to liquefy at 37° C. for 30 minutes. 10 μl of sample is taken into Makler® counting chamber and the concentrations, motilities, viabilities, morphologies of the sperms and the leukocyte existence are evaluated. According to the motility results, the semen specimen is prepared by being washed with HTF based sperm wash solution containing Hepes buffer by using concentration and gradient methods. Washed and prepared sperms are collected in the sperm wash medium in which certain amounts of (25, 50, 100 and 200 μM) 5-HT was added, and incubated at 25′C in certain periods of time (30, 60, 90 and 120 minutes).
Sperm motility tests are performed with the sperms kept in a serotonin medium, by the measurements in the Makler® counting chamber with 30, 60, 90 and 120 min. intervals. Samples with a sperm concentration of 2×10^6 and 50×10^5 per ml max. are included in the analyses. As to the interactions of serotonin and the excipients, washed sperm cells are taken into the sperm wash mediums containing 5-HT and vitamin D, serotonin, selenium, zinc mineral, vitamin C, vitamin E, vitamin B9, vitamin B12 in certain amounts respectively, and are incubated for certain time intervals in an incubator. The dosage of the compounds is determined by examining the effect of the same on sperm motility, both individually and in combination.

Another assay relates to fruit flies. Conditions: fruit flies incapable of mating, after being fed with serotonin; cited from earlier work.

For the compound `NCCc1c[nH]c2ccc(O)cc12` [serotonin], the “Change in Average Motility” value in the assay with sperm cells (25 μM serotonin, 30 min incubation at 25° C.) is 82.76; in the assay on sperm cells (25 μM serotonin, 60 min incubation at 25° C.), 86.28; in the assay with sperm cells (25 μM serotonin, 90 min incubation at 25° C.) it was 81.48; with sperm cells (25 μM serotonin, 120 min incubation at 25° C.) it was 81.41; in the assay on sperm cells (50 μM serotonin, 30 min incubation at 25° C.), 80.56; in the assay on sperm cells (50 μM serotonin, 60 min incubation at 25° C.), 81.66. Further, the “Change in Average Motility” value was found to be 86.08 with sperm cells (50 μM serotonin, 90 min incubation at 25° C.); 80.45 with sperm cells (50 μM serotonin, 120 min incubation at 25° C.); 83.53 in the assay on sperm cells (100 μM serotonin, 30 min incubation at 25° C.); 80.16 in the assay with sperm cells (100 μM serotonin, 60 min incubation at 25° C.); 83.86 in the assay with sperm cells (100 μM serotonin, 90 min incubation at 25° C.); 80.4 in the assay with sperm cells (100 μM serotonin, 120 min incubation at 25° C.). For the same compound, the “Change in Average Motility” value is 82.06 with sperm cells (200 μM serotonin, 30 min incubation at 25° C.); 86.46 in the assay on sperm cells (200 μM serotonin, 60 min incubation at 25° C.); 86.55 in the assay with sperm cells (200 μM serotonin, 90 min incubation at 25° C.); 82.55 in the assay with sperm cells (200 μM serotonin, 120 min incubation at 25° C.). Further, the Mating rate with fruit flies was 25%.
